{"source": "patent US20260124184A1", "about": "“ONCE DAILY ALDOSTERONE SYNTHASE INHIBITOR (R)-(+)-5-(P-CYANOPHENYL)-5,6,7,8-TETRAHYDROIMIDAZO[L,5-A]PYRIDINE” (priority 2022, published 2026)", "key": {"[1]": {"tested_on": "patients with primary aldosteronism", "conditions": "baseline aldosterone 1000-2500 pmol/L; 12 mg QD; Day 70 (placebo withdrawal)", "protocol": "(§1) A double-blind, randomized, Phase 2 trial was conducted between November 2019 and June 2022 at 11 centres in Italy, Switzerland and the Netherlands (NCT04007406). […] Patients requiring fixed-dose antihypertensive therapy continued treatment throughout the study; steroid therapies, β-adrenergic and renin-angiotensin-aldosterone system blockers were not permitted. At 14-day intervals, office blood pressures were recorded and blood samples were taken for measurement of steroid and peptide hormones and electrolytes at a central laboratory.\nPlasma aldosterone and plasma renin concentration were measured centrally under GCP regulations using the Liaison® chemiluminescent immunoassay kit supplied by DiaSorin S.p.A. Italy. The system used specific monoclonal antibodies to prevent cross reactions with other major potential reactants in the serum samples. The monoclonal antibodies directed against specific epitopes of the renin molecule allowed accurate and sensitive quantification. The assays were performed according to the instructions provided by the manufacturer. […] The analytical sensitivity was <0.97 ng/ml. […] The analytical sensitivity was <0.53 IU/mL."}, "[2]": {"tested_on": "patients with primary aldosteronism", "protocol": "as §1\nA centrally calibrated and validated device (Spacelab Healthcare) was used; the device was fitted at the hospital outpatient department by medically qualified staff on day −1 and day 55 prior to supervised drug intake by the patient. The light digital monitor with convenient carry pouches takes the blood pressure reading at regular intervals by inflating and subsequently deflating customized cuffs placed around the non-dominant upper arm for 24-hour recording of about 70 readings. Patients followed their regular routines yet refrained from exercising or taking a bath or shower. In addition, to assure proper measurements, the patient was asked to sit down prior to reading, keep the cuff at the same level as the heart and rest the arm steady. The patient was also asked to keep a diary on activities, meals and sleep to document what he/she was doing just before the reading was taken. At the end of the 24-hour period, the patient was able to remove the monitor and cuff, shower or bathe and return the device to the Investigator at the clinic. The machine stored all readings as source data that were uploaded in the eCRF.\n(§2) For all efficacy endpoints, changes from baseline were calculated from linear models and accompanied by 95% confidence intervals and p values. Log-transformed values were used for changes in ARR. The full analysis set (FAS) and safety set were defined as all randomized patients who received at least one dose of study drug."}, "[3]": {"tested_on": "patients with primary aldosteronism", "protocol": "as §1\nBlood pressure and pulse rate were measured at each visit after a >15-minute rest in sitting position. Blood pressure and pulse rate were measured using a locally calibrated and validated automated oscillometric device (e.g., Omron Healthcare). An adapted wrap cuff was placed on the dominant arm. Three repeat measurements with a 10-minute interval were recorded; the average of the 2nd and 3rd measurements were study relevant.\nas §2", "remark": "listed apart in the source"}, "[4]": {"conditions": "4 mg once daily, n=10, Day 1 (baseline)"}, "[5]": {"conditions": "8 mg once daily, n=12, Day 1 (baseline)"}, "[6]": {"conditions": "12 mg once daily, n=13, Day 1 (baseline)"}, "[7]": {"conditions": "all doses combined, n=35, Day 1 (baseline)"}, "[8]": {"conditions": "all doses combined, n=35, Day 56"}, "[9]": {"conditions": "4 mg once daily, n=10, Day 70 (after placebo withdrawal)"}, "[10]": {"conditions": "8 mg once daily, n=12, Day 70 (after placebo withdrawal)"}}, "note": "Like-named read-outs stand apart in the source and are kept apart here.", "data": [{"substance": "(R)-(+)-5-(p-cyanophenyl)-5,6,7,8-tetrahydroimidazolium[1,5-a]pyridine dihydrogen phosphate [dexfadrostat phosphate]", "values": [{"measurement": "plasma aldosterone concentration, mean", "setting": "[1]", "result": 1264, "unit": "pmol/L"}, {"measurement": "change in 24-h aSBP from baseline to Day 56, mean", "setting": "[2]; 4 mg once daily, n=10", "result": "−8.10", "unit": "mmHg"}, {"measurement": "change in 24-h aSBP from baseline to Day 56, median", "setting": "[2]; 4 mg once daily, n=10", "result": "−8.17", "unit": "mmHg"}, {"measurement": "24-h aSBP, mean", "setting": "[2]; [4]", "result": 136.84, "unit": "mmHg"}, {"measurement": "24-h aSBP, median", "setting": "[2]; [4]", "result": 138.38, "unit": "mmHg"}, {"measurement": "24-h aSBP, mean", "setting": "[2]; 4 mg once daily, n=10, Day 56", "result": 128.74, "unit": "mmHg"}, {"measurement": "24-h aSBP, median", "setting": "[2]; 4 mg once daily, n=10, Day 56", "result": 129.43, "unit": "mmHg"}, {"measurement": "change in 24-h aSBP from baseline to Day 56, mean", "setting": "[2]; 8 mg once daily, n=12", "result": "−13.95", "unit": "mmHg"}, {"measurement": "change in 24-h aSBP from baseline to Day 56, median", "setting": "[2]; 8 mg once daily, n=12", "result": "−13.33", "unit": "mmHg"}, {"measurement": "24-h aSBP, mean", "setting": "[2]; [5]", "result": 144.88, "unit": "mmHg"}, {"measurement": "24-h aSBP, median", "setting": "[2]; [5]", "result": 144.76, "unit": "mmHg"}, {"measurement": "24-h aSBP, mean", "setting": "[2]; 8 mg once daily, n=12, Day 56", "result": 130.93, "unit": "mmHg"}, {"measurement": "24-h aSBP, median", "setting": "[2]; 8 mg once daily, n=12, Day 56", "result": 129.43, "unit": "mmHg"}, {"measurement": "change in 24-h aSBP from baseline to Day 56, mean", "setting": "[2]; 12 mg once daily, n=13", "result": "−9.81", "unit": "mmHg"}, {"measurement": "change in 24-h aSBP from baseline to Day 56, median", "setting": "[2]; 12 mg once daily, n=13", "result": "−12.43", "unit": "mmHg"}, {"measurement": "24-h aSBP, mean", "setting": "[2]; [6]", "result": 144.96, "unit": "mmHg"}, {"measurement": "24-h aSBP, median", "setting": "[2]; [6]", "result": 146.87, "unit": "mmHg"}, {"measurement": "24-h aSBP, mean", "setting": "[2]; 12 mg once daily, n=13, Day 56", "result": 135.15, "unit": "mmHg"}, {"measurement": "24-h aSBP, median", "setting": "[2]; 12 mg once daily, n=13, Day 56", "result": 130.82, "unit": "mmHg"}, {"measurement": "decrease in mean 24-h aSBP from baseline to day 56", "setting": "[2]; all dose groups combined, p<0.0001", "result": 10.7, "unit": "mmHg"}, {"measurement": "change in aSBP from baseline to Day 56, mean", "setting": "[2]; all doses combined, n=35", "result": "−10.74", "unit": "mmHg"}, {"measurement": "change in aSBP from baseline to Day 56, median", "setting": "[2]; all doses combined, n=35", "result": "−12.23", "unit": "mmHg"}, {"measurement": "24-hour ambulatory SBP (aSBP), mean", "setting": "[2]; [7]", "result": 142.62, "unit": "mmHg"}, {"measurement": "24-hour ambulatory SBP (aSBP), median", "setting": "[2]; [7]", "result": 143.4, "unit": "mmHg"}, {"measurement": "24-hour ambulatory SBP (aSBP), mean", "setting": "[2]; [8]", "result": 131.87, "unit": "mmHg"}, {"measurement": "24-hour ambulatory SBP (aSBP), median", "setting": "[2]; [8]", "result": 130.41, "unit": "mmHg"}, {"measurement": "LSM change in 24-hour aSBP from baseline", "setting": "[2]; all patients, Day 1 to Day 56, FIG. 2B, p<0.0001", "result": "−10.7", "unit": "mmHg"}, {"measurement": "effect on 24-hour aSBP", "setting": "[2]; each dose arm, baseline to day 56", "result": "significant reduction (p<0.001) in 24-hour aSBP"}, {"measurement": "office blood pressure (oSBP), mean", "setting": "[3]; [4]", "result": 146.95, "unit": "mmHg"}, {"measurement": "office blood pressure (oSBP), median", "setting": "[3]; [4]", "result": 144.00, "unit": "mmHg"}, {"measurement": "office blood pressure (oSBP), mean", "setting": "[3]; 4 mg once daily, n=10, Day 14", "result": 134.55, "unit": "mmHg"}, {"measurement": "office blood pressure (oSBP), median", "setting": "[3]; 4 mg once daily, n=10, Day 14", "result": 136.25, "unit": "mmHg"}, {"measurement": "office blood pressure (oSBP), mean", "setting": "[3]; 4 mg once daily, n=10, Day 28", "result": 133.70, "unit": "mmHg"}, {"measurement": "office blood pressure (oSBP), median", "setting": "[3]; 4 mg once daily, n=10, Day 28", "result": 130.50, "unit": "mmHg"}, {"measurement": "office blood pressure (oSBP), mean", "setting": "[3]; 4 mg once daily, n=10, Day 42", "result": 134.90, "unit": "mmHg"}, {"measurement": "office blood pressure (oSBP), median", "setting": "[3]; 4 mg once daily, n=10, Day 42", "result": 132.75, "unit": "mmHg"}, {"measurement": "office blood pressure (oSBP), mean", "setting": "[3]; 4 mg once daily, n=10, Day 56", "result": 133.00, "unit": "mmHg"}, {"measurement": "office blood pressure (oSBP), median", "setting": "[3]; 4 mg once daily, n=10, Day 56", "result": 133.75, "unit": "mmHg"}, {"measurement": "office blood pressure (oSBP), mean", "setting": "[3]; [9]", "result": 142.20, "unit": "mmHg"}, {"measurement": "office blood pressure (oSBP), median", "setting": "[3]; [9]", "result": 145.25, "unit": "mmHg"}, {"measurement": "office blood pressure (oSBP), mean", "setting": "[3]; [5]", "result": 148.00, "unit": "mmHg"}, {"measurement": "office blood pressure (oSBP), median", "setting": "[3]; [5]", "result": 147.00, "unit": "mmHg"}, {"measurement": "office blood pressure (oSBP), mean", "setting": "[3]; 8 mg once daily, n=12, Day 14", "result": 137.88, "unit": "mmHg"}, {"measurement": "office blood pressure (oSBP), median", "setting": "[3]; 8 mg once daily, n=12, Day 14", "result": 137.50, "unit": "mmHg"}, {"measurement": "office blood pressure (oSBP), mean", "setting": "[3]; 8 mg once daily, n=12, Day 28", "result": 135.08, "unit": "mmHg"}, {"measurement": "office blood pressure (oSBP), median", "setting": "[3]; 8 mg once daily, n=12, Day 28", "result": 133.25, "unit": "mmHg"}, {"measurement": "office blood pressure (oSBP), mean", "setting": "[3]; 8 mg once daily, n=12, Day 42", "result": 137.83, "unit": "mmHg"}, {"measurement": "office blood pressure (oSBP), median", "setting": "[3]; 8 mg once daily, n=12, Day 42", "result": 134.50, "unit": "mmHg"}, {"measurement": "office blood pressure (oSBP), mean", "setting": "[3]; 8 mg once daily, n=12, Day 56", "result": 134.42, "unit": "mmHg"}, {"measurement": "office blood pressure (oSBP), median", "setting": "[3]; 8 mg once daily, n=12, Day 56", "result": 135.75, "unit": "mmHg"}, {"measurement": "office blood pressure (oSBP), mean", "setting": "[3]; [10]", "result": 142.46, "unit": "mmHg"}, {"measurement": "office blood pressure (oSBP), median", "setting": "[3]; [10]", "result": 139.75, "unit": "mmHg"}, {"measurement": "office blood pressure upon drug withdrawal", "setting": "[3]; Day 70, after 14-day placebo withdrawal", "result": "blood pressure values returned towards baseline levels"}, {"measurement": "effect on office blood pressure", "setting": "[3]; each dose arm, sustained over active treatment period", "result": "rapid and significant (p≤0.001) decrease in office blood pressure"}]}]}
